Assay results published in US6518293B2, “Anti-HIV imidazolone derivatives” (Hoffmann-La Roche Inc., priority 2000, dated 2003).

Columns and labels:
[1] = target: HIV-1 RT (Human immunodeficiency virus type 1 group M subtype B, UniProt P04585); test: HIV-1 Reverse Transcriptase Assay: Inhibitor IC50 Determination; assay type: biochemical; settings: purified recombinant enzyme, poly(rA)/oligo(dT)16 template-primer
Experimental: Assay Method: HIV-1 Reverse Transcriptase Assay: Inhibitor IC50 Determination
HIV-1 RT assay was carried out in 96-well Millipore filtermat NOB50 plates using purified recombinant enzyme and a poly(rA)/oligo(dT)16 template-primer in a total volume of 50 μL. The assay constituents were 50 mM Tris/HCl, 50 mM NaCl, 1 mM EDTA, 6 mM MgCl2, 5 μM dTTP, 0.1 μCi [^3H] dTTP, 5 μg/ml poly (rA) pre annealed to 2.5 μg/ml oligo (dT)16 and a range of inhibitor concentrations in a final concentration of 10% DMSO. Reactions were initiated by adding 5 nM HIV-1 RT and after incubation at 37° C. for 30 min, they were stopped by the addition of 50 μl ice cold 20% TCA and allowed to precipitate at 4° C. for 30 min. The precipitates were collected by applying vacuum to the plate and sequentially washing with 2×200 μl of 10% TCA and 2×200 μl 70% ethanol. Finally the plates were dried and radioactivity counted in a Wallac Microbeta 1450 after the addition of 15 μl scintillation fluid per well. IC50's were calculated by plotting % inhibition versus log10 inhibitor concentrations.

[2] = test system: HXB2-strain of HIV in MT4 cells; test: Antiviral assay: protection of HIV-infected MT4 cells from cell death (MTT); assay type: cell-based; settings: Human immunodeficiency virus 1; MT4 cells infected with HXB2-strain of HIV, MTT viability
Experimental: Anti-HIV antiviral activity was assessed using an adaptation of the method of Pauwels et al. {Pauwels et al., 1988, J Virol Methods 20:309-321}. The method is based on the ability of compounds to protect HIV-infected T lymphoblastoid cells (MT4 cells) from cell-death mediated by the infection. The endpoint of the assay was calculated as the concentration of compound at which the cell viability of the culture was preserved by 50% (‘50% inhibitory concentration’, IC50). The cell viability of a culture was determined by the uptake of soluble, yellow 3-[4,5-dimethylthiazol-2-yl]-2,5-diphenyltetrazolium bromide (MTT) and its reduction to a purple insoluble formazan salt. After solubilization, spectrophotometric methods were employed to measure the amount of formazan product.
MT4 cells were prepared to be in logarithmic-phase growth and a total of 2×10^6 cells infected with the HXB2-strain of HIV at a multiplicity of 0.0001 infectious units of virus per cell in a total volume of between 200-500 microlitres. The cells were incubated with virus for one h at 37° C. before removal of virus. The cells are then washed in 0.01 M phosphate buffered saline, pH 7.2 before being resuspensed in culture medium for incubation in culture with serial dilutions of test compound. The culture medium used was RPMI 1640 without phenol red, supplemented with penicillin, streptomycin, L-glutamine and 10% fetal calf serum (GM10).
Test compounds were prepared as 2 mM solutions in dimethyl sulphoxide (DMSO). Four replicate, serial 2-fold dilutions in GM10 were then prepared and 50 microlitres amounts placed in 96-well plates over a final nanomolar concentration range of 625-1.22. Fifty microlitres GM10 and 3.5×10^4 infected cells were then added to each well. Control cultures containing no cells (blank), uninfected cells (100% viability; 4 replicates) and infected cells without compound (total virus-mediated cell death; 4 replicates) were also prepared. The cultures were then incubated at 37° C. in a humidified atmosphere of 5% CO2 in air for […].
A fresh solution of 5 mg/ml MTT was prepared in 0.01 M phosphate buffered saline, pH 7.2 and 20 microlitres added to each culture. The cultures were further incubated as before for 2 h. They were then mixed by pipetting up and down and 170 microlitres of Triton X-100 in acidified isopropanol (10% v/v Triton X-100 in 1:250 mixture of concentrated HCl in isopropanol). When the formazan deposit was fully solubilized by further mixing, the absorbance (OD) of the cultures was measured at 540 nm and 690 nm wavelength (690 nm readings were used as blanks for artefacts between wells). The percent protection for each treated culture was then calculated from the equation: [formula]
The IC50 was then obtained from graph plots of percent protection versus log10 drug concentration.

Row | SMILES | IC50 [1] | IC50 [2]
1 | CC(C)n1c(Sc2cc(Cl)cc(Cl)c2)c(CNCc2ccncc2)n(C)c1=O | 90 nM | 7 nM
2 | CC(C)n1c(Sc2cc(Cl)cc(Cl)c2)c(COCc2ccncc2)n(C)c1=O | 171 nM | 4 nM
3 | CC(C)n1c(Sc2ccccc2)c(CNCc2ccncc2)n(C)c1=O | 520 nM | 32 nM
4 | CC(C)n1c(Sc2ccccc2)c(CNCc2ccccc2)n(C)c1=O | 730 nM | 44 nM
5 | CC(C)n1c(Oc2cc(Cl)cc(Cl)c2)c(CNCc2ccncc2)n(C)c1=O | 2400 nM | 108 nM
6 | CC(C)n1c(Sc2cc(Cl)cc(Cl)c2)c(CCc2ccccc2)n(C)c1=O | 1160 nM | –
7 | CCC(C)Sc1c(CNCc2ccncc2)n(C)c(=O)n1C(C)C (centres unmarked) | 1910 nM | –
8 | COc1cccc(Sc2c(CNCc3ccncc3)n(C)c(=O)n2C(C)C)c1 | 3340 nM | –
9 | CC(C)n1c(Sc2cc(Cl)cc(Cl)c2)c(CO)n(C)c1=O | 10000 nM | –
10 | Cn1c(COCc2ccccc2)c(Sc2cc(Cl)cc(Cl)c2)n(-c2ccccc2)c1=O | 10000 nM | –
11 | CC(C)n1c(Sc2cc(Cl)cc(Cl)c2)c(/C=C/C#N)n(C)c1=O | 1920 nM | –
12 | CCn1c(Cc2ccncc2)c(Sc2cc(Cl)cc(Cl)c2)n(C(C)C)c1=O | 649 nM | –
13 | CC(C)n1c(Sc2cc(Cl)cc(Cl)c2)c(Cc2ccncc2)n(C)c1=O | 313 nM | 7 nM
14 | CC(C)n1c(Sc2cc(Cl)cc(Cl)c2)c(COc2ccncc2)n(C)c1=O | 608 nM | 134 nM
15 | CC(C)n1c(Sc2cc(Cl)cc(Cl)c2)c(COCc2cccnc2)n(C)c1=O | 115 nM | 5 nM
